According to the supplement of paper PMC10949913:

What was measured:
Experiment in all cases: area under concentration-response curve (viability) (AUC (a.u.)); higher = less active
Settings in all cases: 48 h
CU-ACC1 = test system: CU-ACC1
Outline: (§1)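 Three adrenocortical carcinoma cell lines were seeded at 500–1,000 cells/well in 5 µL medium in 1,536-well plates. 23 nL of each MIPE 5.0 library compound was added at 11 concentrations. After 48 h (per the protocol name), CellTiter-Glo was added for 15 minutes at room temperature and luminescence was read. Signals were normalised per plate to vehicle and empty-well controls. AC50 and area under the curve came from fitted concentration-response curves, keeping only inhibitory or non-responding curve classes.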

CU-ACC2 = test system: CU-ACC2
Outline: as §1

NCI-H295R = test system: NCI-H295R
Outline: as §1

COc1cc(C(=O)N[S+](=O)([O-])c2ccccc2C)ccc1Cc1cn(C)c2ccc(NC(=O)OC3CCCC3)cc12
area under concentration-response curve (CU-ACC1): 513
area under concentration-response curve (CU-ACC2): 595
area under concentration-response curve (NCI-H295R): 488

COC(=O)[C@H](Cc1ccccc1)NC(=O)[C@@H](N)CC(=O)O
area under concentration-response curve (CU-ACC1): 518
area under concentration-response curve (CU-ACC2): 618
area under concentration-response curve (NCI-H295R): 558

CC\1=C(C(\N=C(/N1)C2=CC(=NC=C2)Cl)C3=C(F)C=C(Cl)C=C3)/C(=O)NC4=C(F)C=C5[NH]N=CC5=C4 (stereo not given)
area under concentration-response curve (CU-ACC1): 492
area under concentration-response curve (CU-ACC2): 466
area under concentration-response curve (NCI-H295R): 488

CC[N+](CC)(CC)CCOc1cccc(OCC[N+](CC)(CC)CC)c1OCC[N+](CC)(CC)CC
area under concentration-response curve (CU-ACC1): 412
area under concentration-response curve (CU-ACC2): 472
area under concentration-response curve (NCI-H295R): 474

O=C1\C=C(/OC2=C1C=CC=C2C3=CC=CC=C3)N4CCOCC4
area under concentration-response curve (CU-ACC1): 498
area under concentration-response curve (CU-ACC2): 550
area under concentration-response curve (NCI-H295R): 515

CCCCCN(CCC12CC3CC(CC(C3)C1)C2)C(=O)NCCCc1ccncc1
area under concentration-response curve (CU-ACC1): 472
area under concentration-response curve (CU-ACC2): 519
area under concentration-response curve (NCI-H295R): 453

C[C@]12C[C@H](O)[C@H]3[C@@H](CC\C4=C\C(=O)\C=C/[C@]34C)[C@@H]1CC[C@]2(O)C(=O)CO
area under concentration-response curve (CU-ACC1): 496
area under concentration-response curve (CU-ACC2): 590
area under concentration-response curve (NCI-H295R): 545

O=C([O-])Cc1ccccc1Nc1c(Cl)cccc1Cl
area under concentration-response curve (CU-ACC1): 536
area under concentration-response curve (CU-ACC2): 645
area under concentration-response curve (NCI-H295R): 585

c1coc(CNc2ncnc3nc[nH]c23)c1
area under concentration-response curve (CU-ACC1): 409
area under concentration-response curve (CU-ACC2): 556
area under concentration-response curve (NCI-H295R): 565

COC(=O)[C@H](c1ccccc1Cl)N1CCc2sccc2C1
area under concentration-response curve (CU-ACC1): 510
area under concentration-response curve (CU-ACC2): 551
area under concentration-response curve (NCI-H295R): 521

O=C(c1ccc(N[S+](=O)([O-])c2cccc3cccnc23)cc1)N1CCN(CC2CC2)CC1
area under concentration-response curve (CU-ACC1): 485
area under concentration-response curve (CU-ACC2): 486
area under concentration-response curve (NCI-H295R): 527

Cc1cccc(-c2nn3c(c2-c2ccnc4ccc(C(N)=O)cc24)CCC3)n1
area under concentration-response curve (CU-ACC1): 546
area under concentration-response curve (CU-ACC2): 628
area under concentration-response curve (NCI-H295R): 575

N[S+](=O)([O-])c1cc(Cl)c(Cl)c([S+](N)(=O)[O-])c1
area under concentration-response curve (CU-ACC1): 459
area under concentration-response curve (CU-ACC2): 528
area under concentration-response curve (NCI-H295R): 524

N=C(N)c1ccc2[nH]c(-c3cc(CC(=O)N[C@@H](CC(=O)O)C(=O)O)cc(-c4cc([S+](N)(=O)[O-])ccc4O)c3O)nc2c1
area under concentration-response curve (CU-ACC1): 595
area under concentration-response curve (CU-ACC2): 620
area under concentration-response curve (NCI-H295R): 562

Cc1ccc(/C=N/NC(=O)c2ccccc2Oc2ccccc2)o1
area under concentration-response curve (CU-ACC1): 440
area under concentration-response curve (CU-ACC2): 491
area under concentration-response curve (NCI-H295R): 421

CCCn1c(=O)c2[nH]c(-c3cnn(Cc4cccc(C(F)(F)F)c4)c3)nc2n(CC)c1=O
area under concentration-response curve (CU-ACC1): 509
area under concentration-response curve (CU-ACC2): 633
area under concentration-response curve (NCI-H295R): 584

N[C@@H]1CONC1=O
area under concentration-response curve (CU-ACC1): 533
area under concentration-response curve (CU-ACC2): 497
area under concentration-response curve (NCI-H295R): 559

CC(C)OC(=O)C(C(=O)OC(C)C)=C1S\C=C/S1
area under concentration-response curve (CU-ACC1): 517
area under concentration-response curve (CU-ACC2): 638
area under concentration-response curve (NCI-H295R): 575

CO[C@H]1/C=C/O[C@@]2(C)Oc3c(C)c(O)c4c(c3C2=O)C2=NC3(CCN(CC(C)C)CC3)NC2=C(NC(=O)/C(C)=C/C=C/[C@H](C)[C@H](O)[C@@H](C)[C@@H](O)[C@@H](C)[C@H](OC(C)=O)[C@@H]1C)C4=O
area under concentration-response curve (CU-ACC1): 491
area under concentration-response curve (CU-ACC2): 607
area under concentration-response curve (NCI-H295R): 530

CCCCC(=O)O[C@@]1([C@@H](C)C[C@H]2[C@@H]3CCC/4=C/C(=O)/C=C\[C@]4(C)[C@@]3(F)[C@@H](O)C[C@]12C)C(=O)CO
area under concentration-response curve (CU-ACC1): 455
area under concentration-response curve (CU-ACC2): 555
area under concentration-response curve (NCI-H295R): 462

Nc1ncnc2ccccc12
area under concentration-response curve (CU-ACC1): 534
area under concentration-response curve (CU-ACC2): 633
area under concentration-response curve (NCI-H295R): 566

NC(CC1c2ccccc2Oc2ccccc21)(C(=O)O)C1CC1C(=O)O (stereo not given)
area under concentration-response curve (CU-ACC1): 530
area under concentration-response curve (CU-ACC2): 621
area under concentration-response curve (NCI-H295R): 512

OC(=O)\C1=C\N(C2=CC=C(F)C=C2)C3=C(C=C(F)C(=C3)N4CCNCC4)C1=O
area under concentration-response curve (CU-ACC1): 485
area under concentration-response curve (CU-ACC2): 549
area under concentration-response curve (NCI-H295R): 497

CCCC(CCC)C(=O)NC/1=N/C(=O)N(/C=C1)[C@@H]2O[C@H](CO)[C@@H](O)C2(F)F
area under concentration-response curve (CU-ACC1): 496
area under concentration-response curve (CU-ACC2): 481
area under concentration-response curve (NCI-H295R): 543

CN1CCN(C(=O)[C@H]2[C@@H](C(=O)O)[C@H]3CC[C@@H]2O3)CC1
area under concentration-response curve (CU-ACC1): 628
area under concentration-response curve (CU-ACC2): 699
area under concentration-response curve (NCI-H295R): 620

CN(CCO)C1CCN(c2ccc(Nc3ncc4c5ccnc(F)c5n(C5CCCC5)c4n3)nc2)CC1
area under concentration-response curve (CU-ACC1): 467
area under concentration-response curve (CU-ACC2): 658
area under concentration-response curve (NCI-H295R): 579

CC1SC/2=C(C(O)=O)/C(=O)C3=CC(=C(C=C3N12)N4CCN(CC4)C\C5=C(C)\OC(=O)O5)F (stereo not given)
area under concentration-response curve (CU-ACC1): 586
area under concentration-response curve (CU-ACC2): 612
area under concentration-response curve (NCI-H295R): 565

COCCNCCCn1c(C(=O)CF)c(-c2ccc(C)cc2)c2c(N)ncnc21
area under concentration-response curve (CU-ACC1): 537
area under concentration-response curve (CU-ACC2): 655
area under concentration-response curve (NCI-H295R): 581

Fc1ccc(Cl)cc1-c1nc(Nc2ccncc2)c2nccnc2n1
area under concentration-response curve (CU-ACC1): 553
area under concentration-response curve (CU-ACC2): 612
area under concentration-response curve (NCI-H295R): 549

O=C(C[C@@H]1C/C=C\CCC(=O)O[C@H](c2ccccc2)CNC1=O)NCc1ccc(Cl)cc1
area under concentration-response curve (CU-ACC1): 526
area under concentration-response curve (CU-ACC2): 620
area under concentration-response curve (NCI-H295R): 569

CSCC[C@H](NC(=O)[C@H](Cc1c[nH]c2ccccc12)NC(=O)CCNC(=O)OC(C)(C)C)C(=O)N[C@@H](CC(=O)O)C(=O)N[C@@H](Cc1ccccc1)C(N)=O
area under concentration-response curve (CU-ACC1): 495
area under concentration-response curve (CU-ACC2): 579
area under concentration-response curve (NCI-H295R): 545

CC1=NN(c2ccc(C(=O)O)cc2)C(=O)/C1=C/c1ccc(-c2cc(C)c(C)cc2[N+](=O)[O-])o1
area under concentration-response curve (CU-ACC1): 556
area under concentration-response curve (CU-ACC2): 661
area under concentration-response curve (NCI-H295R): 585

CC1(C)CCC(=C(CN2CCN(CC2)C3=CC=C(C=C3)C(=O)N[S+]([O-])(=O)C4=CC(=C(N[C@H](CCN5CCOCC5)CSC6=CC=CC=C6)C=C4)[S+]([O-])(=O)C(F)(F)F)\C1)/C7=CC=C(Cl)C=C7
area under concentration-response curve (CU-ACC1): 439
area under concentration-response curve (CU-ACC2): 373
area under concentration-response curve (NCI-H295R): 463

OC[C@H]1O[C@H](C[C@@H]1O)N2\C=C(\I)C(=O)NC2=O
area under concentration-response curve (CU-ACC1): 496
area under concentration-response curve (CU-ACC2): 543
area under concentration-response curve (NCI-H295R): 501

CCCCCOC(=O)NC\1=N\C(=O)N(\C=C1F)[C@@H]2O[C@H](C)[C@@H](O)[C@H]2O
area under concentration-response curve (CU-ACC1): 512
area under concentration-response curve (CU-ACC2): 606
area under concentration-response curve (NCI-H295R): 559

O=C(CCCc1ccc2cccnc2n1)NCc1cc(-c2ccc(F)c(C(F)(F)F)c2)no1
area under concentration-response curve (CU-ACC1): 512
area under concentration-response curve (CU-ACC2): 615
area under concentration-response curve (NCI-H295R): 491

O=C(O)c1cccc(-c2noc(-c3ccccc3F)n2)c1
area under concentration-response curve (CU-ACC1): 477
area under concentration-response curve (CU-ACC2): 559
area under concentration-response curve (NCI-H295R): 451

CCCc1nc(C(C)(C)O)c(C(=O)O)n1Cc1ccc(-c2ccccc2-c2nn[nH]n2)cc1
area under concentration-response curve (CU-ACC1): 436
area under concentration-response curve (CU-ACC2): 521
area under concentration-response curve (NCI-H295R): 462

CN(C)c1ccc(O)c2c1C[C@H]1C[C@H]3[C@H](N(C)C)C(O)=C(C(N)=O)C(=O)[C@@]3(O)C(O)=C1C2=O
area under concentration-response curve (CU-ACC1): 453
area under concentration-response curve (CU-ACC2): 524
area under concentration-response curve (NCI-H295R): 473

C[C@H]1C[C@@H](n2c(Nc3ccc(OC(F)(F)F)cc3)nc3cc(CCC(=O)O)ccc32)CC(C)(C)C1
area under concentration-response curve (CU-ACC1): 424
area under concentration-response curve (CU-ACC2): 405
area under concentration-response curve (NCI-H295R): 485

C[S+](=O)([O-])Oc1ccc2c(NC(N)=O)c(C(=O)c3ccc(Cl)cc3Cl)oc2c1
area under concentration-response curve (CU-ACC1): 515
area under concentration-response curve (CU-ACC2): 568
area under concentration-response curve (NCI-H295R): 532

CN(C(=O)CNC(=O)/C=C/c1cccc(Cl)c1)C1CC[S+](=O)([O-])CC1 (stereo not given)
area under concentration-response curve (CU-ACC1): 479
area under concentration-response curve (CU-ACC2): 540
area under concentration-response curve (NCI-H295R): 465

CCC(=O)O[C@@]1([C@H](C)C[C@H]2[C@@H]3C[C@H](F)\C4=C\C(=O)\C=C/[C@]4(C)[C@@]3(F)[C@@H](O)C[C@]12C)C(=O)SCF
area under concentration-response curve (CU-ACC1): 372
area under concentration-response curve (CU-ACC2): 484
area under concentration-response curve (NCI-H295R): 510

O=C(O)c1ccc(CN2CCC(CN[C@@H]3C[C@H]3c3ccccc3)CC2)cc1
area under concentration-response curve (CU-ACC1): 465
area under concentration-response curve (CU-ACC2): 540
area under concentration-response curve (NCI-H295R): 490

C[C@H]1C[C@H]2[C@@H]3CC\C4=C\C(=O)\C=C/[C@]4(C)[C@H]3C(=O)C[C@]2(C)[C@@]1(O)C(=O)CO
area under concentration-response curve (CU-ACC1): 511
area under concentration-response curve (CU-ACC2): 618
area under concentration-response curve (NCI-H295R): 488
